This note sets out measurements from US8975398B2, “NAMPT inhibitors” (AbbVie Inc., priority 2012, dated 2015).

Structures are written as SMILES.

This assay deals with PC3 cells. The experiment in a line: NAMPT Cell Proliferation Assay (Cell Titer Glo; also performed in the presence of 0.3 mM nicotinamide mononucleotide). Particulars: Homo sapiens, PC-3, 120 h, 5 days incubation, cell viability by Cell Titer Glo. It is filed as cell-based. Summed up: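 Viability read by Cell Titer Glo after 5-day compound treatment of PC3 cells, dose range 10 μM down to 1×10^−5 μM in 10-fold steps; a second run adds 0.3 mM nicotinamide mononucleotide. Sigmoidal dose-response fitting of percent inhibition gives IC50.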
On the technique in general: ATP-based viability assays read luminescence as a measure of living cells.

`CCCCCC(=O)N1CCC(Cc2ccc(NC(=O)C3CN(c4cccnn4)C3)cc2)CC1` [Example 948, N-{4-[(1-hexanoylpiperidin-4-yl)methyl]phenyl}-1-(pyridazin-3-yl)azetidine-3-carboxamide]: the half-maximal inhibitory concentration (IC50) came out at 2.26 nM.

In the case of `Cn1cccc1C(=O)N1CCC(Cc2ccc(NC(=O)C3CN(c4cccnn4)C3)cc2)CC1` [Example 949, N-[4-({1-[(1-methyl-1H-pyrrol-2-yl)carbonyl]piperidin-4-yl}methyl)phenyl]-1-(pyridazin-3-yl)azetidine-3-carboxamide], the 50% inhibitory concentration (IC50) was 5.95 nM.

With `C=CCC(=O)N1CCC(Cc2ccc(NC(=O)C3CN(c4cccnn4)C3)cc2)CC1` [Example 950, N-(4-{[1-(but-3-enoyl)piperidin-4-yl]methyl}phenyl)-1-(pyridazin-3-yl)azetidine-3-carboxamide], the IC50 stood at 6.06 nM.

With `O=C(Nc1ccc(CC2CCN(C(=O)c3nccs3)CC2)cc1)C1CN(c2cccnn2)C1` [Example 951, 1-(pyridazin-3-yl)-N-(4-{[1-(1,3-thiazol-2-ylcarbonyl)piperidin-4-yl]methyl}phenyl)azetidine-3-carboxamide], the IC50 is 2.77 nM.

As to `O=C(Nc1ccc(CC2CCN(C(=O)c3ccco3)CC2)cc1)C1CN(c2cccnn2)C1` [Example 952, N-(4-{[1-(furan-2-ylcarbonyl)piperidin-4-yl]methyl}phenyl)-1-(pyridazin-3-yl)azetidine-3-carboxamide], the IC50 stood at 2.17 nM.

For the molecule `O=C(Nc1ccc(CC2CCN(C(=O)c3ccno3)CC2)cc1)C1CN(c2cccnn2)C1` [Example 953, N-(4-{[1-(1,2-oxazol-5-ylcarbonyl)piperidin-4-yl]methyl}phenyl)-1-(pyridazin-3-yl)azetidine-3-carboxamide], the IC50 is 3.34 nM.

Consider `O=C(Nc1ccc(CC2CCN(C(=O)c3ccccn3)CC2)cc1)C1CN(c2cccnn2)C1` [Example 954, 1-(pyridazin-3-yl)-N-(4-{[1-(pyridin-2-ylcarbonyl)piperidin-4-yl]methyl}phenyl)azetidine-3-carboxamide], for which the IC50 was 6.38 nM.

As for `O=C(Nc1ccc(CC2CCN(C(=O)c3ccoc3)CC2)cc1)C1CN(c2cccnn2)C1` [Example 955, N-(4-{[1-(furan-3-ylcarbonyl)piperidin-4-yl]methyl}phenyl)-1-(pyridazin-3-yl)azetidine-3-carboxamide], the concentration for half-maximal inhibition (IC50) turned out to be 5.97 nM.

Take `O=C(Nc1ccc(CC2CCN(C(=O)CC3CC3)CC2)cc1)C1CN(c2cccnn2)C1` [Example 956, N-(4-{[1-(cyclopropylacetyl)piperidin-4-yl]methyl}phenyl)-1-(pyridazin-3-yl)azetidine-3-carboxamide]: the IC50 is 6.4 nM.

On to `CCC(C)C(=O)N1CCC(Cc2ccc(NC(=O)C3CN(c4cccnn4)C3)cc2)CC1` (centres unmarked) [Example 957, N-(4-{[1-(2-methylbutanoyl)piperidin-4-yl]methyl}phenyl)-1-(pyridazin-3-yl)azetidine-3-carboxamide], for which the concentration for half-maximal inhibition (IC50) was found to be 1.93 nM.

For `CCC(=O)N1CCC(Cc2ccc(NC(=O)C3CN(c4cccnn4)C3)cc2)CC1` [Example 958, N-{4-[(1-propanoylpiperidin-4-yl)methyl]phenyl}-1-(pyridazin-3-yl)azetidine-3-carboxamide], the IC50 was 2.63 nM.

On to `CCCC(=O)N1CCC(Cc2ccc(NC(=O)C3CN(c4cccnn4)C3)cc2)CC1` [Example 959, N-{4-[(1-butanoylpiperidin-4-yl)methyl]phenyl}-1-(pyridazin-3-yl)azetidine-3-carboxamide], for which the 50% inhibitory concentration (IC50) was 2.33 nM.

Consider `O=C(Nc1ccc(CC2CCN(C(=O)C3CCC3)CC2)cc1)C1CN(c2cccnn2)C1` [Example 960, N-(4-{[1-(cyclobutylcarbonyl)piperidin-4-yl]methyl}phenyl)-1-(pyridazin-3-yl)azetidine-3-carboxamide], for which the 50% inhibitory concentration (IC50) stood at 2.86 nM.

As to `CCCCC(=O)N1CCC(Cc2ccc(NC(=O)C3CN(c4cccnn4)C3)cc2)CC1` [Example 961, N-{4-[(1-pentanoylpiperidin-4-yl)methyl]phenyl}-1-(pyridazin-3-yl)azetidine-3-carboxamide], the IC50 turned out to be 5.57 nM.

For the molecule `O=C(Nc1ccc(CC2CCN(C(=O)CC3CCCC3)CC2)cc1)C1CN(c2cccnn2)C1` [Example 962, N-(4-{[1-(cyclopentylacetyl)piperidin-4-yl]methyl}phenyl)-1-(pyridazin-3-yl)azetidine-3-carboxamide], the IC50 came out at 2.4 nM.

With `Cc1ccccc1C(=O)N1CCC(Cc2ccc(NC(=O)C3CN(c4cccnn4)C3)cc2)CC1` [Example 963, N-(4-{[1-(2-methylbenzoyl)piperidin-4-yl]methyl}phenyl)-1-(pyridazin-3-yl)azetidine-3-carboxamide], the IC50 was 2.14 nM.

Take `CCC(C)CC(=O)N1CCC(Cc2ccc(NC(=O)C3CN(c4cccnn4)C3)cc2)CC1` (centres unmarked) [Example 964, N-(4-{[1-(3-methylpentanoyl)piperidin-4-yl]methyl}phenyl)-1-(pyridazin-3-yl)azetidine-3-carboxamide]: the concentration for half-maximal inhibition (IC50) amounted to 1.84 nM.

As to `O=C(Nc1ccc(CC2CCN(C(=O)C3CCCCC3)CC2)cc1)C1CN(c2cccnn2)C1` [Example 965, N-(4-{[1-(cyclohexylcarbonyl)piperidin-4-yl]methyl}phenyl)-1-(pyridazin-3-yl)azetidine-3-carboxamide], the IC50 was 2.6 nM.

In the case of `CC(C)CC(=O)N1CCC(Cc2ccc(NC(=O)C3CN(c4cccnn4)C3)cc2)CC1` [Example 966, N-(4-{[1-(3-methylbutanoyl)piperidin-4-yl]methyl}phenyl)-1-(pyridazin-3-yl)azetidine-3-carboxamide], the 50% inhibitory concentration (IC50) came out at 3.23 nM.

For `O=C(Nc1ccc(CC2CCN(C(=O)C3CC3)CC2)cc1)C1CN(c2cccnn2)C1` [Example 967, N-(4-{[1-(cyclopropylcarbonyl)piperidin-4-yl]methyl}phenyl)-1-(pyridazin-3-yl)azetidine-3-carboxamide], the IC50 came to 3.05 nM.

Turning to `O=C(Nc1ccc(CC2CCN(C(=O)CC(F)(F)F)CC2)cc1)C1CN(c2cccnn2)C1` [Example 968, 1-(pyridazin-3-yl)-N-(4-{[1-(3,3,3-trifluoropropanoyl)piperidin-4-yl]methyl}phenyl)azetidine-3-carboxamide], the IC50 came out at 3.7 nM.

Consider `Cc1ccnnc1N1CC(C(=O)Nc2ccc(C3CCN(C(=O)CC(C)(C)C)CC3)cc2)C1` [Example 969, N-{4-[1-(3,3-dimethylbutanoyl)piperidin-4-yl]phenyl}-1-(4-methylpyridazin-3-yl)azetidine-3-carboxamide], for which the IC50 was determined as 0.347 nM.

With `CC(C)(C)CC(=O)N1CCC(n2cc(NC(=O)C3CN(c4cccnn4)C3)cn2)CC1` [Example 970, N-{1-[1-(3,3-dimethylbutanoyl)piperidin-4-yl]-1H-pyrazol-4-yl}-1-(pyridazin-3-yl)azetidine-3-carboxamide], the IC50 was 28.5 nM.

Take `O=C(Nc1cnn(C2CCN(C(=O)c3ccccc3F)CC2)c1)C1CN(c2cccnn2)C1` [Example 971, N-{1-[1-(2-fluorobenzoyl)piperidin-4-yl]-1H-pyrazol-4-yl}-1-(pyridazin-3-yl)azetidine-3-carboxamide]: the IC50 is 70.8 nM.

Consider `O=C(Nc1ccccc1)c1ccc(NC(=O)C2CN(c3cccnn3)C2)cc1` [Example 972, N-[4-(phenylcarbamoyl)phenyl]-1-(pyridazin-3-yl)azetidine-3-carboxamide], for which the IC50 was determined as 667 nM.

With `CC(C)(C)CNC(=O)c1ccc(NC(=O)C2CN(c3cccnn3)C2)cc1` [Example 973, N-{4-[(2,2-dimethylpropyl)carbamoyl]phenyl}-1-(pyridazin-3-yl)azetidine-3-carboxamide], the IC50 is 5.53 nM.

For `COCC(C)(C)CNC(=O)c1ccc(NC(=O)C2CN(c3cccnn3)C2)cc1` [Example 974, N-{4-[(3-methoxy-2,2-dimethylpropyl)carbamoyl]phenyl}-1-(pyridazin-3-yl)azetidine-3-carboxamide], the IC50 was 7.84 nM.

Take `O=C(NCCC1CC1)c1ccc(NC(=O)C2CN(c3cccnn3)C2)cc1` [Example 975, N-{4-[(2-cyclopropylethyl)carbamoyl]phenyl}-1-(pyridazin-3-yl)azetidine-3-carboxamide]: the IC50 came out at 98 nM.

Regarding `CCC1CCCCN1CCNC(=O)c1ccc(NC(=O)C2CN(c3cccnn3)C2)cc1` (centres unmarked) [Example 976, N-(4-{[2-(2-ethylpiperidin-1-yl)ethyl]carbamoyl}phenyl)-1-(pyridazin-3-yl)azetidine-3-carboxamide], the IC50 was 61.2 nM.

On to `O=C(NCC1CCC1)c1ccc(NC(=O)C2CN(c3cccnn3)C2)cc1` [Example 977, N-{4-[(cyclobutylmethyl)carbamoyl]phenyl}-1-(pyridazin-3-yl)azetidine-3-carboxamide], for which the IC50 amounted to 12.4 nM.

Consider `CC[C@H](C)NC(=O)c1ccc(NC(=O)C2CN(c3cccnn3)C2)cc1` [Example 978, N-{4-[(2S)-butan-2-ylcarbamoyl]phenyl}-1-(pyridazin-3-yl)azetidine-3-carboxamide], for which the IC50 turned out to be 1070 nM.

Consider `CCCCNC(=O)c1ccc(NC(=O)C2CN(c3cccnn3)C2)cc1` [Example 979, N-[4-(butylcarbamoyl)phenyl]-1-(pyridazin-3-yl)azetidine-3-carboxamide], for which the IC50 was found to be 72 nM.

Consider `CC1(C)CC(NC(=O)c2ccc(NC(=O)C3CN(c4cccnn4)C3)cc2)CCO1` (centres unmarked) [Example 980, N-{4-[(2,2-dimethyltetrahydro-2H-pyran-4-yl)carbamoyl]phenyl}-1-(pyridazin-3-yl)azetidine-3-carboxamide], for which the concentration for half-maximal inhibition (IC50) came out at 82.2 nM.

With `C[C@H](NC(=O)c1ccc(NC(=O)C2CN(c3cccnn3)C2)cc1)C1CC1` [Example 981, N-(4-{[(1S)-1-cyclopropylethyl]carbamoyl}phenyl)-1-(pyridazin-3-yl)azetidine-3-carboxamide], the IC50 stood at 1060 nM.

With `CN(CCNC(=O)c1ccc(NC(=O)C2CN(c3cccnn3)C2)cc1)c1ccccc1` [Example 982, N-[4-({2-[methyl(phenyl)amino]ethyl}carbamoyl)phenyl]-1-(pyridazin-3-yl)azetidine-3-carboxamide], the IC50 was determined as 83.5 nM.

Broadly, the IC50 is the point on the concentration scale where inhibition reaches its midpoint.
